We go through four compounds from US20240100075A1, “Synthetic Compositions Comprising LNFP III and LSTa” (FrieslandCampina Nederland B.V., priority 2020, published 2024).

Holding throughout (assay type): cell-based, human
One experiment relates to FoxP3. Kind of experiment: Intracellular staining of transcription factors in PBMCs (FACS), FoxP3. The conditions noted are these: PBMC, single HMOs and total pool of HMO; method not given. The procedure:
For intracellular staining PBMCs from 3 donors were incubated with the mentioned HMOs (0.5 g/1) for 24 h prior to analysis. In a 96-wells plate 5*10^5 PBMCs were pelleted at 300 g for 4 minutes. Subsequently, the cells were blocked using 25 μL of blocking buffer (Human BD Fc Block™,BD) and incubated for 10 minutes at room temperature. Then, 25 μL of anti-CD4 FITC (555346, BD) and anti-CD3 APC (555335, BD) were added to each test. The cells were incubated 30 minutes on ice. After the cells were washed twice with Stain Buffer (FBS) (554657, BD) an intracellular staining for the transcription factors was performed by the Transcription Factor Buffer Set (562574, BD). FoxP3 PE (560852, BD) and RORγT PE (563081, BD) were used. Cells were analyzed with FACS (Easycyte 8HT). Expression of FoxP3 and RORγT was analyzed in the CD4-positive cells.
PBMC's from 3 donors were isolated from a buffy coat using Sepmate tubes. The cells were diluted to a concentration of 1*10^7 cells per ml. The PBMC's were seeded in 6 wells plates and treated with 0.5 g/l of 2′-FL or a mix of LNFP-III with LSTa 1:1 w/v in PBMC culturing medium for 24 h. Cells incubated with no HMOs were used as control. For Fluorescence Activated Cell Sorting (FACS), 5*10^5 PBMCs were pelleted at 300 g for 4 minutes in a 96-well plate.
Subsequently, the cells were blocked using 25 μL of blocking buffer (Human BD Fc Block™,BD) and incubated for 10 minutes at room temperature. Then, 25 μL of anti-CD4 FITC (555346, BD) and anti-CD3 APC (555335, BD) were added to each test. The cells were incubated 30 minutes on ice. After the cells were washed twice with Stain Buffer (FBS) (554657, BD) an intracellular staining for the transcription factors was performed by the Transcription Factor Buffer Set (562574, BD). FoxP3 PE (560852, BD) and RORγT PE (563081, BD) were used. Cells were analyzed with FACS (Easycyte 8HT).

The subject of the next experiment is Interleukin-10 (IL-10). In words: Cytokine analysis (Cytometric Bead Array) in PBMC supernatant, IL-10. The conditions noted are these: for effect on the expression of IL10 (summary statement): PBMC, single HMOs and total pool of HMO, method not given. The procedure:
BD™ Cytometric Bead Array (CBA) Human Th1/Th2/Th17 Cytokine Kit (560484, BD) was used to measure Interleukin-6 (IL-6) and Interleukin-10 (IL-10) protein levels in supernatant following the manufacturer's instructions. After acquiring samples on the FACS (Easycyte 8HT), the FCAP Array™ software was used to determine cytokine concentrations.
PBMC's from 3 donors were isolated from a buffy coat using Sepmate tubes. The cells were diluted to a concentration of 1*10^7 cells per ml. The PBMC's were seeded in 6 wells plates and treated with 0.5 g/l of 2′-FL or a mix of LNFP-III with LSTa 1:1 w/v in PBMC culturing medium for 24 h. Cells incubated with no HMOs were used as control. The supernatants from these cultures were collected and BD™ Cytometric Bead Array (CBA) Human Th1/Th2/Th17 Cytokine Kit (560484, BD) was used to measure Interleukin-6 (IL-6) and Interleukin-10 (IL-10) protein levels in supernatant following the manufacturer's instructions. After acquiring samples on the FACS (Easycyte 8HT), the FCAP Array™ software was used to determine cytokine concentrations.

For another experiment, the system named is Interleukin-6 (IL-6). Kind of experiment: Cytokine analysis (Cytometric Bead Array) in PBMC supernatant, IL-6. The settings on record: PBMCs of 3 donors, 0.5 g/l, 24 h, FIG. 8, compared with control. How it is done: BDTM Cytometric Bead Array (CBA) Human Th1/Th2/Th17 Cytokine Kit (560484, BD) was used to measure Interleukin-6 (IL-6) and Interleukin-10 (IL-10) protein levels in supernatant following the manufacturer's instructions. After acquiring samples on the FACS (Easycyte 8HT), the FCAP ArrayTM software was used to determine cytokine concentrations. PBMC's from 3 donors were isolated from a buffy coat using Sepmate tubes. The cells were diluted to a concentration of 1*10^7 cells per ml. The PBMC's were seeded in 6 wells plates and treated with 0.5 g/l of 2'-FL or a mix of […] in PBMC culturing medium for 24 h. Cells incubated with no HMOs were used as control. The supernatants from these cultures were collected and BDTM Cytometric Bead Array (CBA) Human Th1/Th2/Th17 Cytokine Kit (560484, BD) was used to measure Interleukin-6 (IL-6) and Interleukin-10 (IL-10) protein levels in supernatant following the manufacturer's instructions. After acquiring samples on the FACS (Easycyte 8HT), the FCAP ArrayTM software was used to determine cytokine concentrations.

The next experiment deals with CSF3. In words: RNA sequencing in PBMCs, CSF3 gene expression. The settings on record: PBMCs of 3 donors, 0.5 g/l HMO, 6 h, Polymyxin B as control, FIG. 1. The procedure:
(§1) Peripheral blood mononuclear cells (PBMCs) were isolated from a buffy coat using Sepmate tubes. The cells were diluted to a concentration of 1*10^7 cells per ml. The PBMC's were seeded in 6 wells plates and treated with 0.5 g/l of each HMO in PBMC culturing medium for 6 h prior to RNA isolation. Each human milk oligosaccharide (HMO) was mixed with 100 ug/ml (microgram/milliliter) final concentration of Polymyxin B to ensure neutralization of possible endotoxin contamination of HMOs, while equal amounts of Polymyxin B were used as a control. As a positive control HMOs isolated from pooled human milk sample were used. Single HMOs were purchased from BOC Sciences.
(§2) 2500 ng RNA, isolated from PBMCs of 3 donors, was translated into cDNA, using the quantitect reverse transcription kit (Qiagen). RNA sequencing and analysis was performed by use of the NOVOGENE platform according to standard procedures. Gene expression is shown for CSF3, CD25 (IL2RA), IL12B and IL23A as regulated by the pool of HMOs as isolated from human milk (pHMOs), LNFP-III, LSTa and DSLNT.
(§3) PBMC's from 3 donors were isolated from a buffy coat using Sepmate tubes. The cells were diluted to a concentration of 1*10^7 cells per ml. […]
(§4) 2500 ng RNA, isolated from PBMCs, was translated into cDNA, using the quantitect reverse transcription kit (Qiagen). […]

In the next experiment the test system is CD25 (IL2RA). In words: RNA sequencing in PBMCs, CD25 (IL2RA) gene expression. The conditions noted are these: PBMCs of 3 donors, 0.5 g/l HMO, 6 h, Polymyxin B as control, FIG. 2. The procedure: as §1, §2
(§5) PBMC's from 3 donors were isolated from a buffy coat using Sepmate tubes. The cells were diluted to a concentration of 1*10^7 cells per ml. The PBMC's were seeded in 6 wells plates and treated with 0.5 g/l of each HMO in PBMC culturing medium for 6 h prior to RNA isolation. Each HMO was mixed with 100 ug/ml final concentration of Polymyxin B to ensure neutralization of possible endotoxin contamination of HMOs, while equal amounts of Polymyxin B were used as a control. As a positive control HMOs isolated from pooled human milk sample were used. Single HMOs were purchased from BOC Sciences.
(§6) 2500 ng RNA, isolated from PBMCs, was translated into cDNA, using the quantitect reverse transcription kit (Qiagen). RNA sequencing and analysis was performed by use of the NOVOGENE platform according to standard procedures. Gene expression was shown for CSF3, CD25 (IL2RA), IL12B and IL23A as regulated by the pool of HMOs as isolated from human milk (pHMOs), LNFP-III, LSTa and DSLNT.

The next experiment relates to IL12B. Kind of experiment: RNA sequencing in PBMCs, IL12B gene expression. The settings on record: PBMCs of 3 donors, 0.5 g/l HMO, 6 h, Polymyxin B as control, FIG. 3. The procedure: as §1, §2, §5, §6
A further experiment has as its system IL23A. In words: RNA sequencing in PBMCs, IL23A gene expression. The settings on record: PBMCs of 3 donors, 0.5 g/l HMO, 6 h, Polymyxin B as control, FIG. 4. How it is done: as §1, §2, §3, §4

“2′-fucosyllactose [2′FL, reference compound]”: the “effect on the expression of FoxP3 (summary statement)” value (from here on “effect on the expression of FoxP3”) in the experiment on FoxP3 is “no effect”. In addition, the “effect on the expression of IL10 (summary statement)” value (from here on “effect on the expression of IL10”) in the experiment with Interleukin-10 (IL-10) is reported as “no effect”. Also, in the experiment with Interleukin-10 (IL-10) (PBMCs of 3 donors, 0.5 g/l, 24 h, FIG. 7, mixture value is average), the “expression of IL10 (protein level in supernatant)” value is listed as “less than 3 pg/ml”. For the same compound, the “expression of IL6, result in words” value with Interleukin-6 (IL-6) is recorded as “no expression”.

In the case of “α-Neu5Ac-(2→3)-β-D-Gal-(1→3)-[α-Neu5Ac-(2→6)]-β-D-GlcNAc-(1→3)-β-D-Gal-(1→4)-Glc [DSLNT]”, in the experiment with CSF3, the “relative expression of CSF3” value was “around 4”. Besides, the “expression of CD25” value with CD25 (IL2RA) is “around 5.5”. Moreover, in the experiment on IL12B, the “expression of IL12B” value was “about 2.5”.

Take `CC(=O)N[C@H]1[C@H](O[C@H]2[C@@H](O)[C@@H](CO)O[C@@H](O[C@H]3[C@H](O)[C@@H](O)C(O)O[C@@H]3CO)[C@@H]2O)O[C@H](CO)[C@@H](O)[C@@H]1O[C@@H]1O[C@H](CO)[C@H](O)[C@H](O[C@]2(C(=O)O)C[C@H](O)[C@@H](NC(C)=O)[C@H]([C@H](O)[C@H](O)CO)O2)[C@H]1O` (stereo partly drawn) [LSTa, α-Neu5Ac-(2→3)-β-D-Gal-(1→3)-β-D-GlcNAc-(1→3)-β-D-Gal-(1→4)-Glc]: the “expression of CD25” value with CD25 (IL2RA) was “around 6.3”. Moreover, in the experiment with IL12B, the “expression of IL12B” value is recorded as “about 3”. In addition, in the experiment with IL23A, the “expression of IL23A” value was “about 4.4”. Besides, in the experiment with FoxP3, the “effect on the expression of FoxP3” value is “increase”. In the experiment on Interleukin-10 (IL-10), the “effect on the expression of IL10” value was “increase”.

Turning to “β-D-Gal-(1→4)-[α-L-Fuc-(1→3)]-β-D-GlcNAc-(1→3)-β-D-Gal-(1→4)-D-Glc [LNFP III]”, in the experiment with CD25 (IL2RA), the “expression of CD25” value was “around 5.8”. Also, the “expression of IL12B” value in the experiment with IL12B is “about 2.5”. The “expression of IL23A” value in the experiment with IL23A was “about 4.3”. Moreover, in the experiment on FoxP3, the “effect on the expression of FoxP3” value was “increase”. The “effect on the expression of IL10” value in the experiment on Interleukin-10 (IL-10) is reported as “increase”.
